According to patent publication US11053239B2, “Compounds as BLC-2-selective apoptosis-inducing agents” (Fochon Pharmaceuticals, Ltd., priority 2017, dated 2021):

Assays:
RS4; 11 cells = assay: Cell proliferation assay (MTS), RS4; 11 cells; assay type: cell-based; conditions: Homo sapiens, RS4-11, 72 h, RS4; 11 (ATCC CRL-1873) cell proliferation, 30000 cells/well, 72 h, MTS; mechanism-based readout of Bcl-2 inhibition; read-out: RS4; 11 IC50
How it was run: (§1)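 RS4;11 (30000 cells/well, 72 h) and DOHH2 (5000 cells/well, 120 h) cells in RPMI-1640/10% FBS, treated at 37 °C with compound at 1.5–10000 nM final. Viability by MTS (2 h, SDS stop), absorbance 490 nm minus 650 nm reference; IC50 fitted.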

DOHH2 cells = assay: Cell proliferation assay (MTS), DOHH2 cells; assay type: cell-based; conditions: Homo sapiens, DOHH-2, 120 h, DOHH2 (DSMZ ACC 47) cell proliferation, 5000 cells/well, 120 h, MTS; mechanism-based readout of Bcl-2 inhibition; read-out: DOHH2 IC50
How it was run: as §1

Row | IC50 (RS4; 11 cells) | Compound | IC50 (DOHH2 cells)
1 | 36 nM | CCOC(=O)N=S1(=O)CCN(CC[C@H](C)Nc2ccc(S(=O)(=O)NC(=O)c3ccc(N4CCN(CC5=C(c6ccc(Cl)cc6)CC(C)(C)CC5)CC4)cc3Oc3cnc4[nH]ccc4c3)cc2[N+](=O)[O-])CC1 [Example 85, ethyl (S)-(4-(3-((4-(N-(2-((1H-pyrrolo[2,3-b]pyridin-5-yl)oxy)-4-(4-((4′-chloro-5,5-dimethyl-3,4,5,6-tetrahydro-[1,1′-biphenyl]-2-yl)methyl)piperazin-1-yl)benzoyl)sulfamoyl)-2-nitrophenyl)amino)butyl)-1-oxido-1λ^6-thiomorpholin-1-ylidene) carbamate] | 30 nM
2 | 54 nM | C[C@@H](CN1CCP(C)(=O)CC1)Nc1ccc(S(=O)(=O)NC(=O)c2ccc(N3CCN(CC4=C(c5ccc(Cl)cc5)CC(C)(C)CC4)CC3)cc2Oc2cnc3[nH]ccc3c2)cc1S(=O)(=O)C(F)(F)F [Example 49, (S)-2-((1H-pyrrolo[2,3-b]pyridin-5-yl)oxy)-4-(4-((4′-chloro-5,5-dimethyl-3,4,5,6-tetrahydro-[1,1′-biphenyl]-2-yl)methyl)piperazin-1-yl)-N-((4-((1-(4-methyl-4-oxido-1,4-azaphosphinan-1-yl)propan-2-yl)amino)-3-((trifluoromethyl)sulfonyl)phenyl)sulfonyl)benzamide] | 107 nM
3 | 163 nM | CC1(C)CCC(CN2CCN(c3ccc(C(=O)NS(=O)(=O)c4ccc(NCCN5CCP(C)(=O)CC5)c([N+](=O)[O-])c4)c(Oc4cnc5[nH]ccc5c4)c3)CC2)=C(c2ccc(Cl)cc2)C1 [Example 2, 2-((1H-pyrrolo[2,3-b]pyridin-5-yl)oxy)-4-(4-((4′-chloro-5,5-dimethyl-3,4,5,6-tetrahydro-[1,1′-biphenyl]-2-yl)methyl)piperazin-1-yl)-N-((4-((2-(4-methyl-4-oxido-1,4-azaphosphinan-1-yl)ethyl)amino)-3-nitrophenyl)sulfonyl)benzamide] | 427 nM
